Experimental data as given in ChEMBL document CHEMBL1201862, “PubChem BioAssay data set” (2004).
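How tested: cells in 96-well plates exposed to compound for 48 hours at five concentrations. The concentration for 50% growth inhibition is given as GI50.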 Activity calls are given as the source filed them. No stated cut-off is given here; in the data, active = GI50 up to about 1.1 µM and inactive = higher.

What was measured:
Assay in all cases: DTP human tumour cell line panel, 48 h
HCC 2998 = test system: HCC 2998
786-0 = test system: 786-0
HL-60 = test system: HL-60
SF-268 = test system: SF-268
OVCAR-3 = test system: OVCAR-3
UACC-257 = test system: UACC-257
EKVX = test system: EKVX
RPMI-8226 = test system: RPMI-8226
SK-MEL-2 = test system: SK-MEL-2
HOP-92 = test system: HOP-92
SW-620 = test system: SW-620
SN12C = test system: SN12C
COLO 205 = test system: COLO 205
SF-295 = test system: SF-295
SK-MEL-5 = test system: SK-MEL-5
NCI-H460 = test system: NCI-H460
OVCAR-4 = test system: OVCAR-4
NCI-H522 = test system: NCI-H522
LOX IMVI = test system: LOX IMVI

Measured: GI50

Clc1ccc2nc(-c3ccccc3)nc(Cl)c2c1
inactive: HCC 2998 40.2 µM | 786-0 33 µM | HL-60 12.5 µM | SF-268 52.8 µM | OVCAR-3 49.2 µM | UACC-257 45 µM | EKVX 29.2 µM | RPMI-8226 > 100 µM | SK-MEL-2 45.6 µM | HOP-92 25.4 µM | SW-620 > 100 µM | SN12C > 100 µM | COLO 205 > 100 µM | SF-295 46.3 µM | SK-MEL-5 > 100 µM | NCI-H460 87.9 µM

O=C1OC(=O)C2C1C1(c3ccccc3)OC2(c2ccccc2)c2c(Br)c(Br)c(Br)c(Br)c21 (stereo unspecified)
inactive: 786-0 > 100 µM | HL-60 > 100 µM | SF-268 > 100 µM | OVCAR-4 > 100 µM | OVCAR-3 > 100 µM | UACC-257 > 100 µM | EKVX > 100 µM | RPMI-8226 > 100 µM | SK-MEL-2 > 100 µM | HOP-92 > 100 µM | SW-620 > 100 µM | SN12C > 100 µM | NCI-H522 > 100 µM | COLO 205 > 100 µM | LOX IMVI > 100 µM | SF-295 > 100 µM | SK-MEL-5 > 100 µM | NCI-H460 > 100 µM

O=c1[nH]c(Br)nc2c(Br)c[nH]c12
inactive: 786-0 > 100 µM | HL-60 > 100 µM | SF-268 > 100 µM | OVCAR-4 > 100 µM | OVCAR-3 > 100 µM | UACC-257 > 100 µM | EKVX > 100 µM | RPMI-8226 > 100 µM | SK-MEL-2 > 100 µM | HOP-92 > 100 µM | SW-620 > 100 µM | SN12C > 100 µM | NCI-H522 31.3 µM | COLO 205 > 100 µM | LOX IMVI > 100 µM | SF-295 > 100 µM | SK-MEL-5 > 100 µM | NCI-H460 > 100 µM

Nc1cc(=O)n(-c2ccccc2)c(=S)n1-c1ccccc1
inactive: HCC 2998 > 100 µM | 786-0 > 100 µM | SF-268 > 100 µM | OVCAR-3 > 100 µM | UACC-257 > 100 µM | EKVX > 100 µM | RPMI-8226 > 100 µM | SK-MEL-2 > 100 µM | SW-620 > 100 µM | SN12C > 100 µM | NCI-H522 > 100 µM | COLO 205 > 100 µM | LOX IMVI > 100 µM | SF-295 > 100 µM | SK-MEL-5 > 100 µM | NCI-H460 > 100 µM

Cc1ccc(-n2c3nc(=O)n(C)c(=O)c-3nc3ccccc32)cc1
inactive: HCC 2998 4.61 µM | 786-0 30.2 µM | HL-60 11.1 µM | SF-268 35.7 µM | OVCAR-4 14.5 µM | OVCAR-3 3.24 µM | UACC-257 12.8 µM | EKVX 12.9 µM | RPMI-8226 12.5 µM | SK-MEL-2 14.6 µM | SW-620 5.75 µM | SN12C 11.5 µM | NCI-H522 12.6 µM | COLO 205 4.47 µM | LOX IMVI 20.4 µM | SF-295 11.2 µM | SK-MEL-5 13.4 µM | NCI-H460 3.33 µM

COc1ccc2cccc(C(=N)c3ccc(C)c4c3CCC4)c2c1
inactive: HCC 2998 10.8 µM | 786-0 10.2 µM | HL-60 2.67 µM | SF-268 16.4 µM | OVCAR-4 12.2 µM | OVCAR-3 3.52 µM | UACC-257 4.89 µM | EKVX 15.5 µM | SK-MEL-2 11.9 µM | SW-620 5.38 µM | SN12C 12 µM | NCI-H522 3.72 µM | COLO 205 11.9 µM | LOX IMVI 11.7 µM | SF-295 5.7 µM | SK-MEL-5 3.9 µM | NCI-H460 4.3 µM

Oc1ccc([Te]CCNCC[Te]c2ccc(O)cc2)cc1
inactive: HCC 2998 12.8 µM | 786-0 28.7 µM | HL-60 5.55 µM | SF-268 11.1 µM | UACC-257 36 µM | EKVX 3.56 µM | RPMI-8226 16.4 µM | SW-620 23.1 µM | SN12C 9.82 µM | COLO 205 7.13 µM | LOX IMVI 12.5 µM | SF-295 4.32 µM | SK-MEL-5 11.9 µM | NCI-H460 4.67 µM

COCc1c(CO)cnc(C)c1OC1OC(CO)C(O)C(O)C1O (stereo unspecified)
inactive: HCC 2998 > 100 µM | 786-0 > 100 µM | SF-268 > 100 µM | OVCAR-4 > 100 µM | OVCAR-3 > 100 µM | UACC-257 > 100 µM | EKVX > 100 µM | RPMI-8226 > 100 µM | SK-MEL-2 > 100 µM | SW-620 > 100 µM | SN12C > 100 µM | NCI-H522 > 100 µM | LOX IMVI > 100 µM | SF-295 > 100 µM | SK-MEL-5 > 100 µM | NCI-H460 > 100 µM

N#Cc1cc(NC(=O)c2ccccc2)c(=O)n2c1[nH]c1ccccc12
inactive: HCC 2998 28.8 µM | 786-0 37.2 µM | HL-60 26.4 µM | SF-268 43.1 µM | OVCAR-4 27 µM | OVCAR-3 28.2 µM | UACC-257 33 µM | EKVX 36.3 µM | RPMI-8226 11.7 µM | SK-MEL-2 32.1 µM | SW-620 39 µM | SN12C 29.1 µM | NCI-H522 11 µM | COLO 205 31.6 µM | SF-295 71 µM | SK-MEL-5 12.7 µM | NCI-H460 33 µM

CC(=O)O/N=C(/C)c1ccccc1O
inactive: HCC 2998 > 100 µM | 786-0 > 100 µM | HL-60 > 100 µM | SF-268 > 100 µM | OVCAR-4 > 100 µM | OVCAR-3 > 100 µM | UACC-257 > 100 µM | EKVX > 100 µM | RPMI-8226 > 100 µM | SK-MEL-2 > 100 µM | SW-620 > 100 µM | SN12C > 100 µM | NCI-H522 > 100 µM | COLO 205 > 100 µM | LOX IMVI > 100 µM | SF-295 > 100 µM | NCI-H460 > 100 µM

Cc1nc(-n2nc(-c3ccccc3)cc2-c2ccccc2)sc1C(=O)CC(=O)C(=O)Nc1ccc(O)cc1
inactive: HCC 2998 > 100 µM | 786-0 > 100 µM | HL-60 > 100 µM | SF-268 > 100 µM | OVCAR-4 > 100 µM | OVCAR-3 > 100 µM | UACC-257 > 100 µM | EKVX > 100 µM | RPMI-8226 > 100 µM | SK-MEL-2 > 100 µM | SW-620 > 100 µM | SN12C > 100 µM | NCI-H522 > 100 µM | COLO 205 > 100 µM | LOX IMVI > 100 µM | SF-295 > 100 µM

Cc1ccc(S(=O)(=O)Nc2ccccc2C(C)(C)C)cc1
inactive: HCC 2998 42.8 µM | 786-0 25.5 µM | HL-60 16.8 µM | OVCAR-4 25.6 µM | OVCAR-3 17.2 µM | UACC-257 16.1 µM | EKVX 33.2 µM | RPMI-8226 18.7 µM | SK-MEL-2 26.7 µM | SW-620 32.3 µM | SF-295 13.7 µM | SK-MEL-5 15.2 µM | NCI-H460 18.6 µM
